Source: ChEMBL document CHEMBL1862790, “Optimisation of fenarimol series for the treatment of Chagas disease”

Columns and labels:
Trypanosoma cruzi [1] = assay: microbe, parasite or virus in culture; type: functional, organism-based, Tulahuen LacZ, Clone C4; settings: Trypanosoma cruzi, Tulahuen LacZ, Clone C4
[2] = DNDI: Cytotoxicity against L-6 rat myoblasts from skeletal muscle cells; settings: L6 rat skeletal muscle myoblast cells, IC50
Trypanosoma cruzi [3] = assay: microbe, parasite or virus in culture; type: functional, Tulahuen LacZ, Clone C4; settings: Trypanosoma cruzi, Tulahuen LacZ, Clone C4

Compound	IC50 (Trypanosoma cruzi [1])	IC90 (Trypanosoma cruzi [3])	IC50 [2]
O=C(NC1CCCC1)c1cccc(C(O)(c2ccc(Cl)cc2)c2cccnc2)c1 (stereo not given)	150 nM	320 nM	60800 nM
O=S(=O)(NC1CCN(C(c2cnccn2)c2ccc(F)cc2F)CC1)c1ccccc1 (stereo not given)	470 nM	880 nM	67700 nM
O=S(=O)(NC1CCN(C(c2ccc(C(F)(F)F)cc2)c2cnccn2)CC1)c1ccccc1 (stereo not given)	260 nM	900 nM	55900 nM
O=C(NC1CCN(C(c2cnccn2)c2ccc(F)cc2F)CC1)c1ccc(Cl)cc1 (stereo not given)	270 nM	760 nM	66900 nM
O=S(=O)(Cc1ccccc1)N1CCN(C(c2ccc(Cl)cc2)c2cncnc2)CC1 (stereo not given)	220 nM	620 nM	63000 nM
CC(=O)NC1CCN(C(c2cnccn2)c2ccc(F)cc2F)CC1 (stereo not given)	> 1000 nM	> 1000 nM	> 100000 nM
O=C1OC(c2ccc(Cl)cc2)(c2cccnc2)c2ccccc21 (stereo not given)	230 nM	870 nM	84800 nM
O=S(=O)(C1CCCCC1)N1CCN(C(c2ccc(Cl)cc2)c2cncnc2)CC1 (stereo not given)	65 nM	850 nM	56300 nM
O=S(=O)(NC1CCN(C(c2cnccn2)c2ccc(F)cc2F)CC1)c1ccc(Cl)cc1 (stereo not given)	> 1000 nM	> 1000 nM	34300 nM
CS(=O)(=O)N1CCN(C(c2ccc(Cl)cc2)c2cncnc2)CC1 (stereo not given)	880 nM	7540 nM	> 100000 nM
O=S(=O)(NC1CCN(C(c2ccc(C(F)(F)F)cc2)c2cnccn2)CC1)c1ccc(C(F)(F)F)cc1 (stereo not given)	590 nM	> 1000 nM	18100 nM
O=C(NC1CCN(C(c2cnccn2)c2ccc(F)cc2F)CC1)c1ccccc1 (stereo not given)	550 nM	930 nM	> 100000 nM
O=S(=O)(Cc1ccccc1)NC1CCN(C(c2cnccn2)c2ccc(F)cc2F)CC1 (stereo not given)	720 nM	> 1000 nM	> 100000 nM
CC(C)(C)OC(=O)N1CCN(C(c2ccc(Cl)cc2)c2cncnc2)CC1 (stereo not given)	130 nM	280 nM	> 100000 nM
CCC(=O)N1CCN(C(c2ccc(Cl)cc2)c2cncnc2)CC1 (stereo not given)	850 nM	4830 nM	> 100000 nM
CN(C)C(=O)NC1CCN(C(c2ccc(C(F)(F)F)cc2)c2cnccn2)CC1 (stereo not given)	250 nM	> 1000 nM	> 100000 nM
O=C(C1CC1)N1CCN(C(c2ccc(Cl)cc2)c2cncnc2)CC1 (stereo not given)	500 nM	920 nM	> 100000 nM

Compound	IC50 (Trypanosoma cruzi [1])	IC90 (Trypanosoma cruzi [3])	IC50 [2]
CC(C)c1ccc(S(=O)(=O)NC2CCN(C(c3cnccn3)c3ccc(F)cc3F)CC2)cc1 (stereo not given)	850 nM	> 1000 nM	25500 nM
CC(C)(C)OC(=O)NC1CCN(C(c2cnccn2)c2ccc(F)cc2F)CC1 (stereo not given)	260 nM	650 nM	> 100000 nM
O=S(=O)(NC1CCN(C(c2ccc(C(F)(F)F)cc2)c2cnccn2)CC1)c1ccc(Cl)cc1 (stereo not given)	700 nM	> 1000 nM	18900 nM
CC(C)N(C(=O)c1cccc(C(O)(c2ccc(Cl)cc2)c2cccnc2)c1)C(C)C (stereo not given)	14 nM	56 nM	54700 nM
CS(=O)(=O)NC1CCN(C(c2cnccn2)c2ccc(F)cc2F)CC1 (stereo not given)	1380 nM	4980 nM	> 100000 nM
O=C(C1CCCCC1)N1CCN(C(c2ccc(Cl)cc2)c2cncnc2)CC1 (stereo not given)	320 nM	920 nM	> 100000 nM
CC(C)CS(=O)(=O)NC1CCN(C(c2ccc(C(F)(F)F)cc2)c2cnccn2)CC1 (stereo not given)	550 nM	880 nM	62300 nM
CC(C)(C)OC(=O)N1CCC(NC(c2cnccn2)c2ccc(F)cc2F)CC1 (stereo not given)	210 nM	710 nM	> 100000 nM
CCC(=O)NC1CCN(C(c2ccc(C(F)(F)F)cc2)c2cnccn2)CC1 (stereo not given)	1040 nM	7600 nM	> 100000 nM
O=S(=O)(c1ccc(C(F)(F)F)cc1)N1CCN(C(c2ccc(Cl)cc2)c2cncnc2)CC1 (stereo not given)	290 nM	> 1000 nM	57000 nM
Clc1ccc(C(c2cncnc2)N2CCNCC2)cc1 (stereo not given)	> 1000 nM	> 1000 nM	> 100000 nM
O=C(NC1CCN(C(c2cnccn2)c2ccc(F)cc2F)CC1)C1CCCCC1 (stereo not given)	800 nM	> 1000 nM	> 100000 nM
CCN(CC)C(=O)c1cccc(C(O)(c2ccc(Cl)cc2)c2cccnc2)c1 (stereo not given)	150 nM	280 nM	> 100000 nM
OC(c1cccnc1)c1ccc(Cl)cc1F (stereo not given)	> 1000 nM	> 1000 nM	> 100000 nM
CCS(=O)(=O)NC1CCN(C(c2ccc(C(F)(F)F)cc2)c2cnccn2)CC1 (stereo not given)	1140 nM	6470 nM	> 100000 nM
CCS(=O)(=O)N1CCN(C(c2ccc(Cl)cc2)c2cccnc2)CC1 (stereo not given)	47 nM	140 nM	> 100000 nM
CN(C)C(=O)NC1CCN(C(c2cnccn2)c2ccc(F)cc2F)CC1 (stereo not given)	> 1000 nM	> 1000 nM	> 100000 nM

Further lines, with some results ahead:

IC50 (Trypanosoma cruzi [1])	IC90 (Trypanosoma cruzi [3])	Compound	IC50 [2]
1890 nM	5420 nM	CCS(=O)(=O)NC1CCN(C(c2cnccn2)c2ccc(F)cc2F)CC1 (stereo not given)	> 100000 nM
130 nM	460 nM	O=S(=O)(c1ccc(Cl)cc1)N1CCN(C(c2ccc(Cl)cc2)c2cncnc2)CC1 (stereo not given)	29000 nM
490 nM	> 1000 nM	OC(c1ccc(Cl)cc1)(c1cccnc1)c1cnc(Cl)s1 (stereo not given)	> 100000 nM
> 1000 nM	> 1000 nM	CC(C)CC(=O)NC1CCN(C(c2cnccn2)c2ccc(F)cc2F)CC1 (stereo not given)	> 100000 nM
460 nM	900 nM	O=C(NC1CCN(C(c2cnccn2)c2ccc(F)cc2F)CC1)c1ccc(C(F)(F)F)cc1 (stereo not given)	63600 nM
98 nM	300 nM	CC(C)CNC(=O)c1cccc(C(O)(c2ccc(Cl)cc2)c2cccnc2)c1 (stereo not given)	60500 nM
27 nM	68 nM	CC(C)(C)OC(=O)N1CCN(C(c2ccc(Cl)cc2)c2cccnc2)CC1 (stereo not given)	47800 nM
> 1000 nM	> 1000 nM	CCC(=O)NC1CCN(C(c2cnccn2)c2ccc(F)cc2F)CC1 (stereo not given)	> 100000 nM
> 1000 nM	> 1000 nM	O=C(NC1CCN(C(c2cnccn2)c2ccc(F)cc2F)CC1)C1CC1 (stereo not given)	> 100000 nM
750 nM	3540 nM	CC(C)CS(=O)(=O)NC1CCN(C(c2cnccn2)c2ccc(F)cc2F)CC1 (stereo not given)	> 100000 nM
700 nM	> 1000 nM	O=C(Cc1ccccc1)NC1CCN(C(c2cnccn2)c2ccc(F)cc2F)CC1 (stereo not given)	> 100000 nM
520 nM	> 1000 nM	CC(C)c1ccc(S(=O)(=O)NC2CCN(C(c3ccc(C(F)(F)F)cc3)c3cnccn3)CC2)cc1 (stereo not given)	18400 nM
> 1000 nM	> 1000 nM	O=S(=O)(NC1CCN(C(c2cnccn2)c2ccc(F)cc2F)CC1)c1ccc(C(F)(F)F)cc1 (stereo not given)	29400 nM
230 nM	720 nM	CC(C)S(=O)(=O)N1CCN(C(c2ccc(Cl)cc2)c2cncnc2)CC1 (stereo not given)	> 100000 nM
310 nM	780 nM	O=S(=O)(Cc1ccccc1)NC1CCN(C(c2ccc(C(F)(F)F)cc2)c2cnccn2)CC1 (stereo not given)	54900 nM
160 nM	400 nM	O=C(NCc1ccccc1)c1cccc(C(O)(c2ccc(Cl)cc2)c2cccnc2)c1 (stereo not given)	84000 nM
